{"source": "patent US8168567B2", "about": "“Thiadiazolyl oxyphenyl amidines and the use thereof as a fungicide” (Bayer Cropscience AG, priority 2007, dated 2012)", "experiment": "logP determination (acidic, pH 2.3)", "type": "physicochemical", "key": {"[1]": {"conditions": "acidic, read-out: logP (acidic)"}}, "note": "Where two headings read alike, the source gives them in different places."}
{"smiles": "Cc1cc(Oc2nc(C(C)(C)C)ns2)c(C)cc1N=CN(C)C(C)C", "note": "[A-2, N′-{4-[(3-(tert-butyl)-1,2,4-thiadiazol-5-yl)oxy]-2,5-dimethylphenyl}-N-isopropyl-N-methylimidoformamide]", "values": [{"measurement": "logP", "setting": "[1]", "result": 2.15}]}
{"smiles": "Cc1cc(Oc2nc(C(C)(C)C)ns2)c(C)cc1N", "note": "[4-[(3-(tert-Butyl)-1,2,4-thiadiazol-5-yl)oxy]-2,5-dimethylaniline]", "values": [{"measurement": "logP", "setting": "read-out: log P (pH 2.3)", "result": 3.29}]}
{"smiles": "CCN(C)C=Nc1cc(Cl)c(Oc2nc(C(C)(C)C)ns2)cc1C", "note": "[A-8, N′-{4-[(3-(tert-butyl)-1,2,4-thiadiazol-5-yl)oxy]-5-chloro-2-methylphenyl}-N-ethyl-N-methylimidoformamide]", "values": [{"measurement": "logP", "setting": "[1]", "result": 2.11}]}
{"smiles": "CCN(C)/C=N/c1cc(C)c(Oc2nc(C(C)(C)C)ns2)cc1C", "note": "[A-1, N′-{4-[(3-(tert-butyl)-1,2,4-thiadiazol-5-yl)oxy]-2,5-dimethylphenyl}-N-ethyl-N-methylimidoformamide]", "values": [{"measurement": "logP", "setting": "read-out: log P (pH 2.3)", "result": 2.02}]}
{"smiles": "Cc1cc(Oc2nc(C(C)(C)C)ns2)c(Cl)cc1/N=C/N1CCCCC1", "note": "[A-9, 4-[(3-(tert-butyl)-1,2,4-thiadiazol-5-yl)oxy]-5-chloro-2-methyl-N-[(1E)-piperidin-1-ylmethylene]aniline]", "values": [{"measurement": "logP", "setting": "[1]", "result": 2.36}]}
{"smiles": "CC(C)(C)c1nsc(Cl)n1", "note": "[3-(tert-Butyl)-5-chloro-1,2,4-thiadiazole]", "values": [{"measurement": "logP", "setting": "read-out: log P (pH 2.3)", "result": 3.44}]}
{"smiles": "Cc1cc(Oc2nc(C(C)(C)C)ns2)c(C)cc1/N=C/N1CCCCC1", "note": "[A-3, 4-[(3-(tert-butyl)-1,2,4-thiadiazol-5-yl)oxy]-2,5-dimethyl-N-[(1E)-piperidin-1-ylmethylene]aniline]", "values": [{"measurement": "logP", "setting": "[1]", "result": 2.22}]}
